According to the NIST ThermoML archive (doi:10.1021/acs.jced.8b00713):
± gives the expanded uncertainty stated by the source.

Details: Liquid; for viscosity: Vibrating wire viscometry; for mass density: Vibrating tube method

FC(F)(F)/C=C\C(F)(F)F [(Z)-1,1,1,4,4,4-hexafluorobut-2-ene]
Details	mass density [kg/m3]	viscosity [mPa·s]
253.14 K, 15000 kPa	–	0.7477 ± 0.016
253.14 K, 20000 kPa	–	0.7916 ± 0.017
253.15 K, 100 kPa	–	0.6315 ± 0.014
253.15 K, 5000 kPa	–	0.6695 ± 0.015
253.15 K, 25000 kPa	–	0.8337 ± 0.018
253.15 K, 30100 kPa	–	0.871 ± 0.019
253.16 K, 1000 kPa	–	0.6387 ± 0.014
253.16 K, 2000 kPa	–	0.647 ± 0.014
253.16 K, 10000 kPa	–	0.7114 ± 0.015
253.16 K, 40000 kPa	–	0.9576 ± 0.02
263.14 K, 2000 kPa	–	0.5721 ± 0.013
263.14 K, 5000 kPa	–	0.5916 ± 0.013
263.14 K, 30000 kPa	–	0.7644 ± 0.017
263.15 K, 100 kPa	–	0.5599 ± 0.013
263.15 K, 1000 kPa	–	0.5656 ± 0.013
263.15 K, 10000 kPa	–	0.6247 ± 0.014
263.15 K, 15000 kPa	–	0.6579 ± 0.014
263.15 K, 20000 kPa	–	0.6906 ± 0.015
263.16 K, 25000 kPa	–	0.7286 ± 0.016
263.16 K, 40000 kPa	–	0.8352 ± 0.018
273.13 K, 100 kPa	–	0.493 ± 0.011
273.13 K, 10000 kPa	–	0.5526 ± 0.012
273.14 K, 1000 kPa	–	0.4975 ± 0.011
273.14 K, 15000 kPa	–	0.584 ± 0.013
273.14 K, 25000 kPa	–	0.643 ± 0.014
273.14 K, 29700 kPa	–	0.6776 ± 0.015
273.15 K, 5000 kPa	–	0.5227 ± 0.012
273.15 K, 20000 kPa	–	0.6131 ± 0.014
273.16 K, 2000 kPa	–	0.5035 ± 0.011
273.16 K, 40000 kPa	–	0.7422 ± 0.016
283.14 K, 15000 kPa	–	0.5206 ± 0.012
283.14 K, 20000 kPa	–	0.547 ± 0.012
283.15 K, 100 kPa	1402.57 ± 0.48	–
283.15 K, 1000 kPa	1405.16 ± 0.49	–
283.15 K, 2000 kPa	1408.09 ± 0.49	0.446 ± 0.01
283.15 K, 5000 kPa	1416.4 ± 0.51	0.462 ± 0.011
283.15 K, 10000 kPa	1429.39 ± 0.55	0.49 ± 0.011
283.15 K, 15000 kPa	1441.21 ± 0.6	–
283.15 K, 20000 kPa	1452.25 ± 0.67	–
283.15 K, 25000 kPa	1462.46 ± 0.74	0.5731 ± 0.013
283.15 K, 30000 kPa	1472 ± 0.81	0.6009 ± 0.013
283.15 K, 40000 kPa	1489.73 ± 0.99	0.6578 ± 0.014
283.15 K, 50000 kPa	1505.53 ± 1.2	–
283.15 K, 60000 kPa	1520.01 ± 1.4	–
283.15 K, 80000 kPa	1545.15 ± 1.9	–
283.15 K, 100000 kPa	1566.76 ± 2.5	–
283.16 K, 100 kPa	–	0.4357 ± 0.01
283.17 K, 1000 kPa	–	0.4423 ± 0.01
293.15 K, 100 kPa	1377.12 ± 0.49	–
293.15 K, 1000 kPa	1380.09 ± 0.5	0.3924 ± 0.0093
293.15 K, 2000 kPa	1383.27 ± 0.5	0.3978 ± 0.0094
293.15 K, 5000 kPa	1392.34 ± 0.5	–
293.15 K, 10000 kPa	1406.41 ± 0.55	0.4385 ± 0.01
293.15 K, 15000 kPa	1419.13 ± 0.59	–
293.15 K, 15100 kPa	–	0.4651 ± 0.011
293.15 K, 20000 kPa	1430.86 ± 0.65	–
293.15 K, 25000 kPa	1441.76 ± 0.72	0.5151 ± 0.012
293.15 K, 30000 kPa	1451.97 ± 0.79	0.5414 ± 0.012
293.15 K, 40000 kPa	–	0.5919 ± 0.013
293.15 K, 60000 kPa	1501.97 ± 1.4	–
293.15 K, 80010 kPa	1528.17 ± 1.9	–
293.15 K, 99990 kPa	1550.16 ± 2.4	–
293.16 K, 200 kPa	–	0.388 ± 0.0092
293.16 K, 5000 kPa	–	0.4135 ± 0.0097
293.16 K, 20000 kPa	–	0.4904 ± 0.011
293.16 K, 40000 kPa	1470.38 ± 0.96	–
293.16 K, 50000 kPa	1486.98 ± 1.2	–
303.14 K, 20000 kPa	–	0.441 ± 0.01
303.15 K, 100 kPa	1351.47 ± 0.52	–
303.15 K, 200 kPa	–	0.3454 ± 0.0084
303.15 K, 1000 kPa	1354.72 ± 0.51	0.3494 ± 0.0085
303.15 K, 5000 kPa	–	0.3692 ± 0.0089
303.15 K, 10000 kPa	1383.63 ± 0.54	–
303.15 K, 15000 kPa	1397.49 ± 0.58	0.4173 ± 0.0097
303.15 K, 25000 kPa	1421.76 ± 0.7	0.4647 ± 0.011
303.15 K, 30000 kPa	1432.55 ± 0.77	0.4879 ± 0.011
303.15 K, 40000 kPa	–	0.5357 ± 0.012
303.15 K, 50000 kPa	1469.43 ± 1.1	–
303.15 K, 60000 kPa	1485.09 ± 1.4	–
303.15 K, 80000 kPa	1512.19 ± 1.8	–
303.15 K, 100010 kPa	1535.09 ± 2.3	–
303.16 K, 2000 kPa	1358.24 ± 0.51	0.3548 ± 0.0086
303.16 K, 5000 kPa	1368.33 ± 0.51	–
303.16 K, 20000 kPa	1410.02 ± 0.63	–
303.16 K, 40000 kPa	1452.02 ± 0.93	–
303.17 K, 10000 kPa	–	0.3938 ± 0.0093
313.14 K, 1000 kPa	1327.46 ± 0.53	–
313.14 K, 100010 kPa	1519.55 ± 2.3	–
313.15 K, 500 kPa	1325.41 ± 0.53	0.31 ± 0.0077
313.15 K, 1000 kPa	–	0.3121 ± 0.0078
313.15 K, 2000 kPa	1331.4 ± 0.52	0.3173 ± 0.0079
313.15 K, 5000 kPa	1342.64 ± 0.52	0.3312 ± 0.0081
313.15 K, 10000 kPa	1359.5 ± 0.54	–
313.15 K, 15000 kPa	1374.49 ± 0.57	0.3776 ± 0.009
313.15 K, 20000 kPa	1388.16 ± 0.62	0.3989 ± 0.0094
313.15 K, 25000 kPa	1400.64 ± 0.68	0.421 ± 0.0098
313.15 K, 30000 kPa	1412.04 ± 0.74	0.4431 ± 0.01
313.15 K, 40000 kPa	1432.78 ± 0.9	0.4866 ± 0.011
313.15 K, 80010 kPa	1495.94 ± 1.8	–
